Source: article doi:10.1101/2025.01.28.635346v1 (bioRxiv, 2025)
Bridge positions count the residues as written; N and C are the ends. Side chains are listed from the residue outwards. Peptide text beside a SMILES is read from it. * marks the point of attachment. Butanoyl(4-(4-I-phenyl)) = O=C(CCCc1ccc(I)cc1)*; PEG2 = NCCOCCOCCC(=O)O

Experiments:
LCK = LCK (Homo sapiens, UniProt P06239); experiment: Safetyscan47 Kinases Binding, Inhibitor; conditions: for Emax: read-out: Max Response
CNR2 = CNR2 (Homo sapiens, UniProt P34972); experiment: Safetyscan47 GPCR cAMP, Agonist; format: cell-based; conditions: for Emax: read-out: Max Response
CNR2, sequence (P34972 whole entry): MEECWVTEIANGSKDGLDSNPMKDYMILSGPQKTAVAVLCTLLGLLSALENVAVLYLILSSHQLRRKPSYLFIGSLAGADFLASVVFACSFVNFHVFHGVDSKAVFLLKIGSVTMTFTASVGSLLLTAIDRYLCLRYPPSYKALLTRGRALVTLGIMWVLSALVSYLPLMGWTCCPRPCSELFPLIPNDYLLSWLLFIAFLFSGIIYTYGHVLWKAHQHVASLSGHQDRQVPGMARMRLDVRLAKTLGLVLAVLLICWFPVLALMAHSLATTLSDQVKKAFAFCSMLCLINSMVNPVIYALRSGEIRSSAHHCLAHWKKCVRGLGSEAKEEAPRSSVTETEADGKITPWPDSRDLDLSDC

CNR1 = CNR1 (Homo sapiens, UniProt P21554); experiment: Safetyscan47 GPCR cAMP, Agonist; format: cell-based; conditions: for Emax: read-out: Max Response
CNR1, sequence (P21554 whole entry): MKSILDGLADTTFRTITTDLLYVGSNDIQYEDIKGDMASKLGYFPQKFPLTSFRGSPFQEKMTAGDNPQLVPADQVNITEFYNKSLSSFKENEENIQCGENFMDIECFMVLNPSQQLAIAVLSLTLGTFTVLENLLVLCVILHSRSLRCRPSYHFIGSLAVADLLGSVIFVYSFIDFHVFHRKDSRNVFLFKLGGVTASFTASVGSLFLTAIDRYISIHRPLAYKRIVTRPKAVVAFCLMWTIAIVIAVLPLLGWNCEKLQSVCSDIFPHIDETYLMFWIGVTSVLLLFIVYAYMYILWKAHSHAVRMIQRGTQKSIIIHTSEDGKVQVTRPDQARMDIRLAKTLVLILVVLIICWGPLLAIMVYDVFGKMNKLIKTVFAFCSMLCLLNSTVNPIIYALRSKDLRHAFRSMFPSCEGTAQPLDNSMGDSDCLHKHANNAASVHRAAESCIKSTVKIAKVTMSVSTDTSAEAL

[1] = Hepatocyte stability, cryopreserved human hepatocytes; format: in vitro ADME
ADRA1A = molecular target: T1, ADRA1A (Homo sapiens, UniProt P35348); experiment: Safetyscan47 GPCR Calcium Flux, Antagonist; format: cell-based; conditions: for Emax: read-out: Max Response
T1 sequence (P35348 1-466): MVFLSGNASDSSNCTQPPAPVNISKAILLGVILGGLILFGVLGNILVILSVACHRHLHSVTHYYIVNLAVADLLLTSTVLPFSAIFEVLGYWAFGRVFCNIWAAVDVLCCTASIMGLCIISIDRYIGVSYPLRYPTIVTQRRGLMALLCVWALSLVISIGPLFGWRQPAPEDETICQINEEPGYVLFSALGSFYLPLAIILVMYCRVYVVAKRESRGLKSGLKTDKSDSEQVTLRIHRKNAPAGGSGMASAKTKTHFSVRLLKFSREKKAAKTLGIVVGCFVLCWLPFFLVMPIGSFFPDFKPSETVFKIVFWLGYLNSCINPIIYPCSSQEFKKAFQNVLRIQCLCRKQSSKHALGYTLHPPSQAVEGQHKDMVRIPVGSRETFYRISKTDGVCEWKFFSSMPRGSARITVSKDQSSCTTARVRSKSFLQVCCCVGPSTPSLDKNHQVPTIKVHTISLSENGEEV

DRD1 = DRD1 (Homo sapiens, UniProt P21728); experiment: Safetyscan47 GPCR cAMP, Agonist; format: cell-based; conditions: for Emax: read-out: Max Response
DRD1, sequence (P21728 whole entry): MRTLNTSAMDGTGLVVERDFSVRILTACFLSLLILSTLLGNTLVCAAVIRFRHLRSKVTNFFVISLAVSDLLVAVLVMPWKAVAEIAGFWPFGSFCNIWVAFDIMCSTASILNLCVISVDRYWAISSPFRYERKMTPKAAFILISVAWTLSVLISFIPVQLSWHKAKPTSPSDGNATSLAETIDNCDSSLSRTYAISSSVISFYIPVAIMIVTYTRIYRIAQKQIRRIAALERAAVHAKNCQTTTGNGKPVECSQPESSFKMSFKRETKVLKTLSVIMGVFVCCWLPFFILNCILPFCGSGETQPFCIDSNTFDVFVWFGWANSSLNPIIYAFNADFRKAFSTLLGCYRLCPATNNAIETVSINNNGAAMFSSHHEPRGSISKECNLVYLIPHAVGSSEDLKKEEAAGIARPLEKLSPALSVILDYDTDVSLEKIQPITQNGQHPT

nAChR(a4/b2) = nAChR(a4/b2) (Homo sapiens, UniProt P17787+P43681); experiment: Safetyscan47 Ion Channel, Opener; format: cell-based; conditions: for Emax: read-out: Max Response
CHRM2 = molecular target: T2, CHRM2 (Homo sapiens, UniProt P08172); experiment: Safetyscan47 GPCR cAMP, Agonist; format: cell-based; conditions: for Emax: read-out: Max Response
T2 sequence (P08172 1-466): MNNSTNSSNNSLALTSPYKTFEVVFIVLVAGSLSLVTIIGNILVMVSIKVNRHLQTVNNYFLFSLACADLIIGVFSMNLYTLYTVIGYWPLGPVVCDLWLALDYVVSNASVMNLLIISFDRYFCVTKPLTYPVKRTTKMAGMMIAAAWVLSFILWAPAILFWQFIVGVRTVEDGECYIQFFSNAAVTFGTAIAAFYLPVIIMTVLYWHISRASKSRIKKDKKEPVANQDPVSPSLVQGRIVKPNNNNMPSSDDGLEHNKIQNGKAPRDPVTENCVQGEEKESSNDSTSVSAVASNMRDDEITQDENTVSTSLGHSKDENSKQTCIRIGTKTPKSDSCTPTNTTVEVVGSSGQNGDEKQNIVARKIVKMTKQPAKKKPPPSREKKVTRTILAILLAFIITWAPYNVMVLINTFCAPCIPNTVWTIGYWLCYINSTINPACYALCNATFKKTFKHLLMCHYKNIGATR

COX1 = COX1 (Homo sapiens, UniProt P23219); experiment: Safetyscan47 Non-Kinase Enzymes Enzymatic, Inhibitor; format: biochemical; conditions: for Emax: read-out: Max Response
COX1, sequence (P23219 24-599): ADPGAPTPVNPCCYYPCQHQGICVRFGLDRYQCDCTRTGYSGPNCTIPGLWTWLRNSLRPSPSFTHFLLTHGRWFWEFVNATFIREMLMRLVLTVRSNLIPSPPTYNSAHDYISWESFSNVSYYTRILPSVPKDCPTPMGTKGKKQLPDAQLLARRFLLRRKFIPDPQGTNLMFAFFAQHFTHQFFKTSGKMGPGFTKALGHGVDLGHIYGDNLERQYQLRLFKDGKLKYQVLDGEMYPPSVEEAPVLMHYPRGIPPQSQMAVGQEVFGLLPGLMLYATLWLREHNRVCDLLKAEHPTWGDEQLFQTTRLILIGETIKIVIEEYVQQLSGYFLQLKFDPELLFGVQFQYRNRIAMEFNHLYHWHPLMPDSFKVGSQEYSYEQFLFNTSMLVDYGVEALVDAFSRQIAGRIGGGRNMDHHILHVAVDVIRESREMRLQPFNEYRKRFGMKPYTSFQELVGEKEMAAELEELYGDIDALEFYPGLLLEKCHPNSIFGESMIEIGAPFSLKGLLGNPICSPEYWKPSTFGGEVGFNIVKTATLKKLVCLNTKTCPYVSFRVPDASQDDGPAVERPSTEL

KvLQT1/minK = KvLQT1/minK (Homo sapiens, UniProt P15382+P51787); experiment: Safetyscan47 Ion Channel, Blocker; format: cell-based; conditions: for Emax: read-out: Max Response
KvLQT1/minK, sequence (P51787 whole entry): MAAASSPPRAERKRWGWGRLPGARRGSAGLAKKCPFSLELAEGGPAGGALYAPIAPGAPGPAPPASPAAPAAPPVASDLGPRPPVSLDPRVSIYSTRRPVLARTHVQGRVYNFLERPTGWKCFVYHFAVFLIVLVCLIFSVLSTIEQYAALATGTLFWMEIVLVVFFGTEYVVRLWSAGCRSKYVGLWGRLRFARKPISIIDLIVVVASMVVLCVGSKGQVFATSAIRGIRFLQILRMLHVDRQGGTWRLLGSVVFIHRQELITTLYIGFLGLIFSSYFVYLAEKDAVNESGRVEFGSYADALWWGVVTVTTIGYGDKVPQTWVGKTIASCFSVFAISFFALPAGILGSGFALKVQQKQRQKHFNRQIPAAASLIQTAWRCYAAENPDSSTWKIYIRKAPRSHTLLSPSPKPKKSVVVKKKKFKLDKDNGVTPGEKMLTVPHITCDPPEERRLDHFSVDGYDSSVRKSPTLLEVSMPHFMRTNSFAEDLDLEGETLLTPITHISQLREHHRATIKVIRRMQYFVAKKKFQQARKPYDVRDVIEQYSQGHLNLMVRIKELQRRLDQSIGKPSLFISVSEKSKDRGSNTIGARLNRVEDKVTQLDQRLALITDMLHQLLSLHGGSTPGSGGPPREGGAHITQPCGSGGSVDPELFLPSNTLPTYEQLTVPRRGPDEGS

CAV1.2 = CAV1.2 (Homo sapiens, UniProt Q13936); experiment: Safetyscan47 Ion Channel, Blocker; format: cell-based
AVPR1A = AVPR1A (Homo sapiens, UniProt P37288); experiment: Safetyscan47 GPCR Calcium Flux, Antagonist; format: cell-based; conditions: for Emax: read-out: Max Response
AVPR1A, sequence (P37288 whole entry): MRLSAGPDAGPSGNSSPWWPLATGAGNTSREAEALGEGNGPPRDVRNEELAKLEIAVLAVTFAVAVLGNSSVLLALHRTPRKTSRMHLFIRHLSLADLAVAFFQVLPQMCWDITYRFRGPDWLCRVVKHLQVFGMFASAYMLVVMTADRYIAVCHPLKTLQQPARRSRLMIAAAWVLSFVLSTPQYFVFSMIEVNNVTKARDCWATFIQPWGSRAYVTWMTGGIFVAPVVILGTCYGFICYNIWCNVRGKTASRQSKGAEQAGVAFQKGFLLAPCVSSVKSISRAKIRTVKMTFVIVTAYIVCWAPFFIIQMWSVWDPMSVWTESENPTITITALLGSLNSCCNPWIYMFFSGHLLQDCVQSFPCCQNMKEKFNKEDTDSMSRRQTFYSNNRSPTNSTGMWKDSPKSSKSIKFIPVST

INSR = INSR (Homo sapiens, UniProt P06213); experiment: Safetyscan47 Kinases Binding, Inhibitor; conditions: for Emax: read-out: Max Response
OPRM1 = OPRM1 (Homo sapiens, UniProt P35372); experiment: Safetyscan47 GPCR cAMP, Agonist; format: cell-based; conditions: for Emax: OPRM1, read-out: Max Response
OPRM1, sequence (P35372 whole entry): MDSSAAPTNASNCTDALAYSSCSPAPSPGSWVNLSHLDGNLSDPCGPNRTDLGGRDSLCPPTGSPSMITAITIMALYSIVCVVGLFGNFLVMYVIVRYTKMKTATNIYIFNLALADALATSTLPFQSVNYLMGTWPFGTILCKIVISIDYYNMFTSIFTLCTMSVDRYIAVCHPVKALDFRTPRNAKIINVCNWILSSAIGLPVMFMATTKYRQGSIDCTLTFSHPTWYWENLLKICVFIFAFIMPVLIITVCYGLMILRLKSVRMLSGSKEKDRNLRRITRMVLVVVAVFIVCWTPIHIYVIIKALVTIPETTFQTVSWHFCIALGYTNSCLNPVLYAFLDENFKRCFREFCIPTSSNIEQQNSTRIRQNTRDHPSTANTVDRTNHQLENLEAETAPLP

CHRM3 = CHRM3 (Homo sapiens, UniProt P20309); experiment: Safetyscan47 GPCR Calcium Flux, Agonist; format: cell-based; conditions: for Emax: read-out: Max Response
CHRM3, sequence (P20309 whole entry): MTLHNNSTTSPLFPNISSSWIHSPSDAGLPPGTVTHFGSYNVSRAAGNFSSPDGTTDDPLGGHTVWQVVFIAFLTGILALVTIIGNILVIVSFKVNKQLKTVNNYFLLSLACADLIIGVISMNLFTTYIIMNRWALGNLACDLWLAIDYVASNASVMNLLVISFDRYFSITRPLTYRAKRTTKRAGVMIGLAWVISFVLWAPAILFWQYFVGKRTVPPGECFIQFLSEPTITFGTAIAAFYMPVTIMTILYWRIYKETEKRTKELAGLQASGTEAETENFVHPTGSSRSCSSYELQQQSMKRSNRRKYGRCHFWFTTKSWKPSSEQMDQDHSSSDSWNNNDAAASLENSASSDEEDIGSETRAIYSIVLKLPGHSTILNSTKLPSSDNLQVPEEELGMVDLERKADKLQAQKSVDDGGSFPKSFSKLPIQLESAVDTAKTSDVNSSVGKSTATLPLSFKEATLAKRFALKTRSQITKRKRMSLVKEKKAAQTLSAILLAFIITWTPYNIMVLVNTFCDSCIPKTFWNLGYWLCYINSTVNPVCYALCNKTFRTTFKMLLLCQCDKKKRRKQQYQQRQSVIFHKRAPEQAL

HRH2 = HRH2 (Homo sapiens, UniProt P25021); experiment: Safetyscan47 GPCR cAMP, Agonist; format: cell-based; conditions: for Emax: read-out: Max Response
HRH2, sequence (P25021 whole entry): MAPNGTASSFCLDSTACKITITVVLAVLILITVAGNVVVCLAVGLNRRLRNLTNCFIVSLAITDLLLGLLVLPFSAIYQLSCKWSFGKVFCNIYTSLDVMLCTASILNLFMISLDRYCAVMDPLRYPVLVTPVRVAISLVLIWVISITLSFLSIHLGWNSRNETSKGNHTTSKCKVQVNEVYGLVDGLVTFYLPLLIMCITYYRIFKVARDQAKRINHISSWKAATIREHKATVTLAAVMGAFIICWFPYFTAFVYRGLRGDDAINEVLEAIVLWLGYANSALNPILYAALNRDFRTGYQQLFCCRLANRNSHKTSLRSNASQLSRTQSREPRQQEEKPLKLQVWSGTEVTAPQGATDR

CHRM1 = molecular target: T3, CHRM1 (Homo sapiens, UniProt P11229); experiment: Safetyscan47 GPCR Calcium Flux, Antagonist; format: cell-based; conditions: for Emax: read-out: Max Response
T3 sequence (P11229 1-460): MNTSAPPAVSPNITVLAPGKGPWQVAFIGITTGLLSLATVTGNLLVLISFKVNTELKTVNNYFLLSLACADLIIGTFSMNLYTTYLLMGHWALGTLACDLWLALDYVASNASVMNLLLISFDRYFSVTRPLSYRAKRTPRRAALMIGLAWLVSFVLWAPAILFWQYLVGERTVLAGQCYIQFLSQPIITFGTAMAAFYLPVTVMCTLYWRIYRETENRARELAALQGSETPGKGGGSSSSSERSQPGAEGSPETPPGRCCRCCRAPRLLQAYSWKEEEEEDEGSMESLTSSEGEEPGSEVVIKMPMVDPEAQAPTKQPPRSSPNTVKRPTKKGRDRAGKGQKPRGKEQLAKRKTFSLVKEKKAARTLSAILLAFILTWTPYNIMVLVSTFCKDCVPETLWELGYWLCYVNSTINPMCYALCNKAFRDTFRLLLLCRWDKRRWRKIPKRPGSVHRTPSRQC

LCK, sequence (P06239 whole entry): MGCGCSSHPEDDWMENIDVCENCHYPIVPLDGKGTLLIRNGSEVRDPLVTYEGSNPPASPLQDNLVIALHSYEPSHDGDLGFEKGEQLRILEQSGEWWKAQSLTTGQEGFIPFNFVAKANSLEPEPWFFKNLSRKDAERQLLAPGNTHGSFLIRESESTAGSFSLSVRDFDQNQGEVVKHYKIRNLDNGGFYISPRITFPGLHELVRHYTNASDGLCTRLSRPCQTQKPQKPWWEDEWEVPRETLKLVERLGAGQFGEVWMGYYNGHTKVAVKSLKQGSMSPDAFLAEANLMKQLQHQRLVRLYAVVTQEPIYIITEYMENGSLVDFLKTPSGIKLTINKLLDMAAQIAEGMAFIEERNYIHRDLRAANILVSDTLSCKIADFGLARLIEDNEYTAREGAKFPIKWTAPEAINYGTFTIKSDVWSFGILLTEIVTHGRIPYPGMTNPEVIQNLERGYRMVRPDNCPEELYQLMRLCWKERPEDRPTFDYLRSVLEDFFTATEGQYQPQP

Compound	IC50 (LCK) [µM]	Emax (LCK) [%]	EC50 (CNR2) [µM]	Emax (CNR2) [%]	EC50 (CNR1) [µM]	Emax (CNR1) [%]	remaining at 1 h, 2 μM [1] [%]	remaining at 3 h, 2 μM [1] [%]	IC50 (ADRA1A) [µM]	Emax (ADRA1A) [%]	EC50 (DRD1) [µM]	Emax (DRD1) [%]	EC50 (nAChR(a4/b2)) [µM]	Emax (nAChR(a4/b2)) [%]	EC50 (CHRM2) [µM]	Emax (CHRM2) [%]	IC50 (COX1) [µM]	Emax (COX1) [%]	IC50 (KvLQT1/minK) [µM]	Emax (KvLQT1/minK) [%]	other results
CC[C@H](C)[C@H](NC(=O)[C@H](CC(C)C)NC(=O)[C@H](CC(=O)O)NC(=O)CNC(=O)[C@H](CCCNC(=N)N)NC(=O)[C@@H](NC(=O)[C@H](Cc1ccccc1)NC(=O)[C@H](Cc1ccc(O)cc1)NC(=O)[C@@H]1CCC(=O)NCC(=O)NCC(=O)N[C@@H](CCCNC(=N)N)C(=O)NCC(=O)N[C@@H](Cc2c[nH]cn2)C(=O)N[C@@H](C(C)C)C(=O)N2CCC[C@H]2C(=O)N1)C(C)C)C(=O)N[C@@H](CO)C(=O)N[C@@H](Cc1ccccc1)C(=O)N[C@@H](Cc1ccc(O)cc1)C(=O)N[C@@H](CCCCN)C(=O)O [lassotide 36] (GGRGHVPEYFVRGDLISFYK-OH; lactam N-8)	> 45	0	> 45	6.08	> 45	1.38	87.9	57.8	> 45	9.9	> 45	0	> 45	11	> 45	7.71	> 45	21	> 45	1.8	half-life at 2 μM [1]: 4.1 h; Emax (CAV1.2): 0%; IC50 (CAV1.2): > 45 µM; IC50 (AVPR1A): > 45 µM; Emax (AVPR1A): 13.3%; IC50 (INSR): > 45 µM; Emax (INSR): 17.4%; EC50 (OPRM1): > 45 µM; Emax (OPRM1): 3.7%; EC50 (CHRM3): > 45 µM; Emax (CHRM3): 2.89%; EC50 (HRH2): > 45 µM; Emax (HRH2): 0%; IC50 (CHRM1): > 45 µM; Emax (CHRM1): 8.3%
CC[C@H](C)[C@H](NC(=O)[C@H](CC(C)C)NC(=O)[C@H](CC(=O)O)NC(=O)CNC(=O)[C@H](CCCNC(=N)N)NC(=O)[C@@H](NC(=O)[C@H](Cc1ccccc1)NC(=O)[C@H](Cc1ccc(O)cc1)NC(=O)[C@@H]1CCC(=O)NCC(=O)NCC(=O)N[C@@H](CCCNC(=N)N)C(=O)NCC(=O)N[C@@H](Cc2c[nH]cn2)C(=O)N[C@@H](C(C)C)C(=O)N2CCC[C@H]2C(=O)N1)C(C)C)C(=O)N[C@@H](CO)C(=O)N[C@@H](Cc1ccccc1)C(=O)N[C@@H](Cc1ccc(O)cc1)C(=O)N[C@@H](CCCCNC(=O)CCOCCOCCNC(=O)CCCc1ccc(I)cc1)C(=O)O [lassotide 47] (GGRGHVPEYFVRGDLISFYK([PEG2-Butanoyl(4-(4-I-phenyl))])-OH; lactam N-8)	> 45	0	> 45	1.85	> 45	29.1	85.3	84.8	> 45	2.58	> 45	0	> 45	0	> 45	32.7	> 45	19.4	> 45	24.8	Emax (CAV1.2): 0%; IC50 (CAV1.2): > 45 µM; IC50 (AVPR1A): > 45 µM; Emax (AVPR1A): 25.8%; IC50 (INSR): > 45 µM; Emax (INSR): 11.2%; EC50 (OPRM1): > 45 µM; Emax (OPRM1): 18.4%; EC50 (CHRM3): > 45 µM; Emax (CHRM3): 1.93%; EC50 (HRH2): > 45 µM; Emax (HRH2): 0%; IC50 (CHRM1): > 45 µM; Emax (CHRM1): 0%
